The values below come from patent publication US7605156B2, “Methods for the use of inhibitors of cytosolic phospholipase A2” (Wyeth, priority 2001, dated 2009).

In the assay the target is T1, cPLA2 (Homo sapiens, UniProt P47712).
T1 sequence (P47712 1-749): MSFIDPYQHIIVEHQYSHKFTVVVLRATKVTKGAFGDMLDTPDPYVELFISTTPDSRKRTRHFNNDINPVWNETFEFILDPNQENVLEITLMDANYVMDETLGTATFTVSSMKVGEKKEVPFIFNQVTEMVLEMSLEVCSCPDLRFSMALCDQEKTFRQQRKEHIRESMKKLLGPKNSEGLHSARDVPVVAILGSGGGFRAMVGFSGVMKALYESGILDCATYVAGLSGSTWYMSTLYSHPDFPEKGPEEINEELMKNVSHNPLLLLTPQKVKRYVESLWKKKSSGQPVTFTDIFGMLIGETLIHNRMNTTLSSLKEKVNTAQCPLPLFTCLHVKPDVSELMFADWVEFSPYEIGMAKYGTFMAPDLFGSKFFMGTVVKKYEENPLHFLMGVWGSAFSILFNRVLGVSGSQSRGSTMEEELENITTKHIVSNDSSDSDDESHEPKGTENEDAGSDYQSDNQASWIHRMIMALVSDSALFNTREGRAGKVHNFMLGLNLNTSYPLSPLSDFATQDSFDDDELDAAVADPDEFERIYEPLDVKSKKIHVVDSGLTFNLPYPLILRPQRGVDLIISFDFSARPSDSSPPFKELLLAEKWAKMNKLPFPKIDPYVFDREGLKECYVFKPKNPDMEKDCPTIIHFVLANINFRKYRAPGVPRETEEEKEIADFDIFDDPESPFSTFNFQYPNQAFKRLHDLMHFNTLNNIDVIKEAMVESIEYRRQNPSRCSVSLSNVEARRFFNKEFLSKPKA
The assay can be described thus: Coumarine assay (hydrolysis of 7-hydroxycoumarinyl 6-heptenoate). Type of assay: biochemical. As to conditions: 60 μM 7-hydroxycoumarinyl 6-heptenoate, pH 7.5; read-out: Coumarin IC50.

Experimental: Inhibitors were mixed with 200 μL assay buffer (80 mM Heped, pH 7.5, 1 mM EDTA) containing 60 μM 7-hydroxycoumarinyl 6-heptenoate. The reaction was initiated by adding 4 μg cPLA2 in 50 μL assay buffer. Hydrolysis of the 7-hydroxycounarimyl 6-heptenoate ester was monitored in a fluorometer by exciting at 360 nm and monitoring emission at 460 nm. Enzyme activity is proportional to the increase in emission at 460 nm per minute. In the presence of a cPLA2 inhibitor, the rate of increase is less.

Broadly, the IC50 is the point on the concentration scale where inhibition reaches its midpoint. `O=C(O)CCc1ccc(S(=O)(=O)CCc2c(CCNS(=O)(=O)Cc3ccc(Cl)c(Cl)c3)n(C(c3ccccc3)c3ccccc3)c3ccc(Cl)cc23)cc1` [Example 129, 3-[4-({2-[1-benzhydryl-5-chloro-2-(2-{[(3,4-dichlorobenzyl)sulfonyl]amino}ethyl)-1H-indol-3-yl]ethyl}sulfonyl)phenyl] propanoic acid]: the IC50 was 130 nM. Next, `COc1cc(C)ccc1S(=O)(=O)NCCc1c(CCOc2ccc(C(=O)O)cc2)c2cc(Cl)ccc2n1C(c1ccccc1)c1ccccc1` [Example 171, 4-{2-[1-benzhydryl-5-chloro-2-(2-{[(2-methoxy-4-methylphenyl)sulfonyl]amino}ethyl)-1H-indol-3-yl]ethoxy}benzoic acid]: 360 nM; `NC(=O)C1CCCN1CCS(=O)(=O)NCCc1c(CCOc2ccc(C(=O)O)cc2)c2cc(Cl)ccc2n1C(c1ccccc1)c1ccccc1` (stereo not drawn) [Example 247, 4-[2-(1-Benzhydryl-2-{2-[2-(2-carbamoyl-pyrrolidin-1-yl)-ethanesulfonylamino]-ethyl}-5-chloro-1H-indol-3-yl)-ethoxy]-benzoic acid]: 1200 nM; `CS(=O)(=O)c1ccc(S(=O)(=O)NCCc2c(CCOc3ccc(C(=O)O)cc3)c3cc(Cl)ccc3n2C(c2ccccc2)c2ccccc2)cc1` [Example 203, 4-(2-{1-benzhydryl-5-chloro-2-[2({[4-(methylsulfony)phenyl]sulfonyl}amino)ethyl]-1H-indol-3-yl}ethoxy)benzoic acid]: 690 nM. Turning to `O=C(O)c1ccc(OCCc2c(CCNS(=O)(=O)c3c(Cl)cc(Cl)cc3Cl)n(C(c3ccccc3)c3ccccc3)c3ccc(Cl)cc23)cc1` [Example 161, 4-{2-[1-benzhydryl-5-chloro-2-(2-{[(2,4,6-trichlorophenyl)sulfonyl]amino}ethyl)-1H-indol-3-yl]ethoxy}benzoic acid], the IC50 came out at 320 nM.

As to `COc1ccc(S(=O)(=O)NCCc2c(CCCc3ccc(C(=O)O)cc3)c3cc(Cl)ccc3n2C(c2ccccc2)c2ccccc2)c2nonc12` [Example 173, 4-{3-[1-benzhydryl-5-chloro-2-(2-{[(7-methoxy-2,1,3-benzoxadiazol-4-yl)sulfonyl]amino}ethyl)-1H-indol-3-yl]propyl}benzoic acid], the IC50 was determined as 400 nM. For the compound `O=C(O)c1ccc(OCCc2c(CCNS(=O)(=O)c3ccccc3Cl)n(C(c3ccccc3)c3ccccc3)c3ccc(Cl)cc23)cc1F` [Example 190, 4-(2-{1-Benzhydryl-5-chloro-2-[2-(2-chloro-benzenesulfonylamino)-ethyl]-1H-indol-3-yl}-ethoxy)-2-fluoro-benzoic acid], the IC50 came to 530 nM. Next, `O=C(O)c1ccc(CCCc2c(CCNS(=O)(=O)Cc3ccc(Cl)cc3)n(C(c3ccccc3)c3ccccc3)c3ccc(Cl)cc23)cc1` [Example 60, 4-{3-[1-benzhydryl-5-chloro-2-(2-{[(4-chlorobenzyl)sulfonyl]amino}ethyl)-1H-indol-3-yl]propyl}benzoic acid]: 150 nM. On to `COc1ccccc1S(=O)(=O)NCCc1c(CCCc2ccc(C(=O)O)cc2)c2cc(Cl)ccc2n1C(c1ccccc1)c1ccccc1` [Example 234, 4-{3-[1-Benzhydryl-5-chloro-2-(2-{[(2-methoxyphenyl)sulfonyl]amino}ethyl)-1H-indol-3-yl]propyl}benzoic acid], for which the IC50 was 230 nM.

With `O=C(O)c1ccc(CCCc2c(CCNS(=O)(=O)c3ccc(C(F)(F)F)cc3)n(C(c3ccccc3)c3ccccc3)c3ccc(Cl)cc23)cc1` [Example 228], the IC50 was 400 nM. Next, `CCc1cccc(CC)c1S(=O)(=O)NCCc1c(CCOc2ccc(C(=O)O)cc2)c2cc(Cl)ccc2n1C(c1ccccc1)c1ccccc1` [Example 272, 4-{2-[1-benzhydryl-5-chloro-2-(2-{[(2,6-diethylphenyl)sulfonyl]amino}ethyl)-1H-indol-3-yl]ethoxy}benzoic acid]: 100 nM. Next, `O=C(O)c1ccc(CCCc2c(CCNS(=O)(=O)c3c(F)cccc3F)n(C(c3ccccc3)c3ccccc3)c3ccc(Cl)cc23)cc1` [Example 224]: 250 nM; `CCc1cccc(CC)c1S(=O)(=O)NCCc1c(CCCc2ccc(C(=O)O)cc2)c2cc(Cl)ccc2n1C(c1ccccc1)c1ccccc1` [Example 273, 4-{3-[1-benzhydryl-5-chloro-2-(2-{[(2,6-diethylphenyl)sulfonyl]amino}ethyl)-1H-indol-3-yl]propyl}benzoic acid]: 110 nM. Next, `O=C(O)c1ccc(CCCc2c(CCNS(=O)(=O)c3c(F)cccc3C(F)(F)F)n(C(c3ccccc3)c3ccccc3)c3ccc(Cl)cc23)cc1` [Example 268, 4-(3-{1-benzhydryl-5-chloro-2-[2-({[2-fluoro-6-(trifluoromethyl)phenyl]sulfonyl}amino)ethyl]-1H-indol-3-yl}propyl)benzoic acid]: 90 nM. In the case of `O=C(O)c1ccc(OCCc2c(CCNS(=O)(=O)c3cccc4nonc34)n(C(c3ccccc3)c3ccccc3)c3ccc(Cl)cc23)cc1` [Example 182, 4-(2-{1-Benzhydryl-2-[2-(benzo[1,2,5]oxadiazole-4-sulfonylamino)-ethyl]-5-chloro-1H-indol-3-yl}-ethoxy)benzoic acid], the IC50 was determined as 600 nM. In the case of `O=C(O)c1ccc(CCCc2c(CCNS(=O)(=O)c3cccc(OC(F)(F)F)c3)n(C(c3ccccc3)c3ccccc3)c3ccc(Cl)cc23)cc1` [Example 201, 4-(3-{1-Benzhydryl-5-chloro-2-[2-(3-trifluoromethoxy-benzenesulfonylamino)-ethyl]-1H-indol-3-yl}-propyl)-benzoic acid] it was 350 nM; in that of `CS(=O)(=O)c1ccc(S(=O)(=O)NCCc2c(CCCc3ccc(C(=O)O)cc3)c3cc(Cl)ccc3n2C(c2ccccc2)c2ccccc2)cc1` [Example 202, 4-(3-{1-Benzhydryl-5-chloro-2-{2-({[4-(methysulfonyl)phenyl]sulfonyl}amino)ethyl]-1H-indol-3-yl}propyl)benzoic acid], 300 nM; in that of “4-{2-[1-benzhydryl-5-chloro-2-(2-{[(2,6-dimethylbenzyl)sulfonyl]amino}ethyl)-1H-indol-3-yl]ethoxy}benzoic acid [Example 279]”, 160 nM. With `O=C(O)c1ccc(OCCc2c(CCNS(=O)(=O)c3ccccc3OC(F)(F)F)n(C(c3ccccc3)c3ccccc3)c3ccc(Cl)cc23)cc1` [Example 231], the IC50 is 250 nM. In the case of “4-(2-{1-benzhydryl-5-chloro-2-[2-({[(5,6-dichloropyridine-2-yl)methyl]sulfonyl}amino)ethyl]-1H-indol-3-yl}ethoxy)benzoic acid [Example 76]” it was 400 nM. As for `O=C(O)c1ccc(CCCc2c(CCNS(=O)(=O)c3ccccc3-c3ccccc3)n(C(c3ccccc3)c3ccccc3)c3ccc(Cl)cc23)cc1` [Example 157, 4-[3-(1-benzhydryl-2-{2-[(1,1′-biphenyl-2-ylsulfonyl)amino]ethyl}-5-chloro-1H-indol-3-yl)propyl]benzoic acid], the IC50 worked out at 200 nM. Next, `Cc1nc(-c2ccc(S(=O)(=O)NCCc3c(CCOc4ccc(C(=O)O)cc4)c4cc(Cl)ccc4n3C(c3ccccc3)c3ccccc3)s2)cs1` [Example 177, 4-(2-{1-benzhydryl-5-chloro-2-[2-({[5-(2-methyl-1,3-thiazol-4-yl)thien-2-yl]sulfonyl}amino)ethyl]-1H-indol-3-yl}ethoxy)benzoic acid]: 900 nM; `O=C(O)c1ccc(OCCc2c(CCNS(=O)(=O)c3ccc(-c4ccc(F)cc4)cc3)n(C(c3ccccc3)c3ccccc3)c3ccc(Cl)cc23)cc1` [Example 217, 4-{2-[1-benzhydryl-5-chloro-2-(2-{[(4′-fluoro-1,1′-biphenyl-4-yl)sulfonyl]amino}ethyl)-1H-indol-3-yl]ethoxy}benzoic acid]: 2600 nM; `O=C(O)c1ccc(OCCc2c(CCNS(=O)(=O)c3cc(Cl)c(F)cc3F)n(C(c3ccccc3)c3ccccc3)c3ccc(Cl)cc23)cc1` [Example 169, 4-{2-[1-Benzhydryl-5-chloro-2-(2-{[(5-chloro-2,4-difluorophenyl)sulfonyl]amino}ethyl)-1H-indol-3-yl]ethoxy}benzoic acid]: 460 nM. For `CC(C)C1CCCN1CCS(=O)(=O)NCCc1c(CCOc2ccc(C(=O)O)cc2)c2cc(Cl)ccc2n1C(c1ccccc1)c1ccccc1` (stereo not drawn) [Example 252, 4-(2-{1-benzhydryl-5-chloro-2-[2-({[2-(2-isopropylpyrrolidin-1-yl)ethyl]sulfonyl}amino)ethyl]-1H-indol-3-yl}ethoxy)benzoic acid], the IC50 was determined as 730 nM. Turning to `Cc1nn(C)c(C)c1S(=O)(=O)NCCc1c(CCOc2ccc(C(=O)O)cc2)c2cc(Cl)ccc2n1C(c1ccccc1)c1ccccc1` [Example 213, 4-{2-[1-benzhydryl-5-chloro-2-(2-{[(1,3,5-trimethyl-1H-pyrazol-4-yl)sulfonyl]amino}ethyl)-1H-indol-3-yl]ethoxy}benzoic acid], the IC50 stood at 450 nM.

Consider `Cc1cccc(Cl)c1S(=O)(=O)NCCc1c(CCCc2ccc(C(=O)O)cc2)c2cc(Cl)ccc2n1C(c1ccccc1)c1ccccc1` [Example 226], for which the IC50 was 140 nM.
